Measurements published in patent publication US20040265341A1, “Prevention of uveitis” (Kings College London, priority 2003, published 2004).
Like-named read-outs stand apart in the source and are kept apart here.

Experiments:
uveitis [1] = assay: Prevention of experimental uveitis by oral administration in the rat uveitis model; type: in vivo; details: oral administration to experimental animals; conjugate vs peptide alone p<0.0001
PBMC [2] = type: cell-based, human
PBMC [3] = type: cell-based, human; details: for concentration of IFN-γ: relapsed group
uveitis [4] = details: cited from earlier work
[5] = before tolerising regime, 3 patients with relapsing uveitis

QPHDLGKVGEVIVTKD [p336-351]
development of uveitis (uveitis [1]): 65.8% | development of uveitis (animals with uveitis / total) (uveitis [1]): 48/73 | stimulation index (SI), individual patients (PBMC [2]; [5]): > 2 | stimulation index (SI), mean±sem (PBMC [2]; [5]): 4.1±0.8 | stimulation index (SI), mean±sem (PBMC [2]; before tolerising regime, 5 patients in whom uveitis was prevented): 1.25±0.1 | stimulation index (SI), mean (PBMC [2]; prevented group, 3 months after tolerising regime started, immunosuppressive drugs tailed off): 2.3±0.6 | stimulation index (SI), mean (PBMC [2]; relapsing group, 1-2 months after tolerising regime initiated, immunosuppressive doses decreased): 23.2 (±14.8) | production of IFN-γ (PBMC [3]; patients in whom uveitis was prevented, before and 3 months after immunosuppressive drugs withdrawn): negligible | TNF-α concentrations (PBMC [3]; protected patients): negligible | concentration of IFN-γ (PBMC [3]; 1-2 months after tolerisation initiated, unstimulated 1665±1111 pg/ml): 4723 (±2639) pg/ml | concentration of IFN-γ (PBMC [3]; before tolerisation, unstimulated 504±411 pg/ml): 758 ± 636 pg/mL | TNF-α concentrations (PBMC [3]; relapsing patients, mostly 1-2 months after tolerisation): increased levels | induction of uveitis (uveitis [4]; Lewis rats, subcutaneously with an adjuvant, Uchio et al 1998): uveitis can be induced | induction of uveitis or tolerance (uveitis [4]; oral or nasal administration, Hu et al 1998): induced uveitis instead of tolerance | uveitogenicity when administered to rats (uveitis [4]; rats, Stanford et al 1994): most effective
